Test results reported in BindingDB's records for doi:10.1016/s0960-894x(03)00407-4 (Guilford Pharmaceuticals, 2003).

Experiment: Concentration required for the neuroprotective effect determined by inhibition of GCP II

EC50 [nM]	SMILES
9.5	O=C(O)CCC(CP(=O)(O)Cc1c(F)c(F)c(F)c(F)c1F)C(=O)O (racemic)
1100	O=C(O)CCC(CCCC(=O)NO)C(=O)O (stereo not drawn) [2-(3-Hydroxycarbamoyl-propyl)-pentanedioic acid]
220	O=C(O)CCC(CC(=O)NO)C(=O)O (stereo not drawn) [2-[(hydroxycarbamoyl)methyl]pentanedioic acid]
